Results from the OligoGym collection.
“And” between values parts separate entries of the source, which are not always exact repeats. Equal entries are not always repeated. After the bases stand the sugars from the 5' end (letter, count) and the backbone: PS all phosphorothioate, else s phosphorothioate and o phosphodiester by linkage. Methylation of C is not given here. e = 2'-O-(2-methoxyethyl) (MOE); k = constrained ethyl (cEt); d = 2'-deoxy (DNA)

Target: SOD1
Conditions: ASO

CAGGATAACAGATGAGT (sugars e2 k2 d8 k2 e3, PS)
target mRNA inhibition (HepG2, 0.1875 µM): 62% | target mRNA inhibition (HepG2, 0.75 µM): 89% | target mRNA inhibition (HepG2, 3 µM): 95% | target mRNA inhibition (HepG2, 4 µM): 95% | target mRNA inhibition (HepG2, 12 µM): 95%

CAGGATAACAGATGAGT (sugars e3 k2 d7 k2 e3, PS)
target mRNA inhibition (HepG2, 0.1875 µM): 45% | target mRNA inhibition (HepG2, 0.75 µM): 72% | target mRNA inhibition (HepG2, 3 µM): 65% and 86% | target mRNA inhibition (HepG2, 12 µM): 92%

CAGGCCTTCAGTCAGTCCTT (sugars e5 d10 e5, PS)
target mRNA inhibition (HepG2, 5 µM): 56% and 51%

CAGGTCATTGAAACAGA (sugars e3 k2 d7 k2 e3, PS)
target mRNA inhibition (HepG2, 3 µM): 14%

CAGTGTTTAATGTTTA (sugars ekddddddddekekee, linkages s1 o1 s8 o3 s2)
target mRNA inhibition (A431, 0.12 µM): 8% | target mRNA inhibition (A431, 0.6 µM): 26% | target mRNA inhibition (A431, 3 µM): 57% | target mRNA inhibition (A431, 15 µM): 76% | target mRNA inhibition (HepG2, 0.222 µM): 54% | target mRNA inhibition (HepG2, 0.667 µM): 79% | target mRNA inhibition (HepG2, 2 µM): 84% | target mRNA inhibition (HepG2, 6 µM): 88%

CAGTGTTTAATGTTTAT (sugars e3 k2 d7 k2 e3, PS)
target mRNA inhibition (HepG2, 3 µM): 54%

CAGTGTTTAATGTTTATC (sugars e5 d8 e5, linkages s1 o3 s9 o2 s2)
target mRNA inhibition (A431, 0.12 µM): 0% | target mRNA inhibition (A431, 0.6 µM): 8% | target mRNA inhibition (A431, 3 µM): 39% | target mRNA inhibition (A431, 15 µM): 52% | target mRNA inhibition (HepG2, 0.222 µM): 21% | target mRNA inhibition (HepG2, 0.667 µM): 47% | target mRNA inhibition (HepG2, 2 µM): 64% | target mRNA inhibition (HepG2, 6 µM): 84%

CAGTTTCTCACTACAGG (sugars e2 k2 d9 k2 e2, PS)
target mRNA inhibition (HepG2, 5 µM): 38%

CATACAGGGTTTTTATT (sugars e3 k2 d7 k2 e3, PS)
target mRNA inhibition (HepG2, 3 µM): 0%

CATCCTTTGGCCCACCG (sugars e3 k2 d7 k2 e3, PS)
target mRNA inhibition (HepG2, 3 µM): 38%

CATGCCTCTCTTCATCC (sugars e3 k2 d7 k2 e3, PS)
target mRNA inhibition (HepG2, 3 µM): 14%

CATTGCCCAAGTCTCCAACA (sugars e5 d10 e5, PS)
target mRNA inhibition (HepG2, 5 µM): 39% and 25%

CATTTCTACAGCTAGC (sugars ekddddddddekekee, linkages s1 o1 s8 o3 s2)
target mRNA inhibition (A431, 0.12 µM): 3% | target mRNA inhibition (A431, 0.6 µM): 3% | target mRNA inhibition (A431, 3 µM): 2% | target mRNA inhibition (A431, 15 µM): 11%

CCAAGGGAATGTTTATT (sugars e2 k2 d8 k2 e3, PS)
target mRNA inhibition (HepG2, 4 µM): 57%

CCAAGGGAATGTTTATT (sugars e3 k2 d7 k2 e3, PS)
target mRNA inhibition (HepG2, 3 µM): 36%

CCAAGTGATCATAAATC (sugars e2 k2 d8 k2 e3, PS)
target mRNA inhibition (HepG2, 5 µM): 40%

CCAATTACACCACAAGC (sugars e3 k2 d7 k2 e3, PS)
target mRNA inhibition (HepG2, 3 µM): 29%

CCACACCATCTTTGTCAGCA (sugars e5 d10 e5, PS)
target mRNA inhibition (HepG2, 5 µM): 39% and 20%

CCACACCTTCACTGGTCCAT (sugars e5 d10 e5, PS)
target mRNA inhibition (HepG2, 2 µM): 50%

CCACTCTGGCCCCAAAC (sugars e3 k2 d7 k2 e3, PS)
target mRNA inhibition (HepG2, 3 µM): 17%

CCAGACCTCCGCGCCTCGCC (sugars e5 d10 e5, PS)
target mRNA inhibition (HepG2, 4 µM): 46%

CCATGCAGGCCTTCAGT (sugars e3 k2 d7 k2 e3, PS)
target mRNA inhibition (HepG2, 3 µM): 21%

CCCAATTACACCACAAG (sugars e2 k2 d8 k2 e3, PS)
target mRNA inhibition (HepG2, 4 µM): 63%

CCCATCTGTGATTTAAGTCT (sugars e5 d10 e5, PS)
target mRNA inhibition (HepG2, 5 µM): 41%

CCCCGTCTCCGCGACTACTT (sugars e5 d10 e5, PS)
target mRNA inhibition (HepG2, 4 µM): 16%

CCCTTCAGCACGCACAC (sugars e2 k2 d8 k2 e3, PS)
target mRNA inhibition (HepG2, 0.1875 µM): 25% | target mRNA inhibition (HepG2, 0.75 µM): 22% | target mRNA inhibition (HepG2, 2 µM): 50% | target mRNA inhibition (HepG2, 3 µM): 72% | target mRNA inhibition (HepG2, 4 µM): 74% | target mRNA inhibition (HepG2, 12 µM): 79%

CCGCGCCTCGCCCACTCTGG (sugars e5 d10 e5, PS)
target mRNA inhibition (HepG2, 4 µM): 27%

CCGTCGCCCTTCAGCAC (sugars e2 k2 d9 k2 e2, PS)
target mRNA inhibition (HepG2, 0.1875 µM): 24% | target mRNA inhibition (HepG2, 0.75 µM): 42% | target mRNA inhibition (HepG2, 3 µM): 80% | target mRNA inhibition (HepG2, 4 µM): 75% | target mRNA inhibition (HepG2, 12 µM): 94%

CCGTCGCCCTTCAGCAC (sugars e3 k2 d7 k2 e3, PS)
target mRNA inhibition (HepG2, 3 µM): 27%

CCGTCGCCCTTCAGCACGCA (sugars e5 d8 e7, linkages s1 o3 s10 o3 s2)
target mRNA inhibition (A431, 0.062 µM): 8% | target mRNA inhibition (A431, 0.185 µM): 4% | target mRNA inhibition (A431, 0.556 µM): 5% | target mRNA inhibition (A431, 1.667 µM): 4% | target mRNA inhibition (A431, 5 µM): 9% | target mRNA inhibition (A431, 15 µM): 3% | target mRNA inhibition (SH-SY5Y, 0.062 µM): 11% | target mRNA inhibition (SH-SY5Y, 0.185 µM): 15% | target mRNA inhibition (SH-SY5Y, 0.556 µM): 9% | target mRNA inhibition (SH-SY5Y, 1.667 µM): 30% | target mRNA inhibition (SH-SY5Y, 5 µM): 59% | target mRNA inhibition (SH-SY5Y, 15 µM): 76%

CCTCAGACTACATCCAA (sugars e2 k2 d9 k2 e2, PS)
target mRNA inhibition (HepG2, 0.1875 µM): 11% | target mRNA inhibition (HepG2, 0.75 µM): 67% | target mRNA inhibition (HepG2, 3 µM): 89% | target mRNA inhibition (HepG2, 4 µM): 87% | target mRNA inhibition (HepG2, 12 µM): 94%

CCTCATAATAAGTGCCA (sugars e2 k2 d9 k2 e2, PS)
target mRNA inhibition (HepG2, 5 µM): 31%
